These results are taken from ChEMBL document CHEMBL3244013, “Central nervous system activity of a novel class of annelated 1,4-benzodiazepines, aminomethylene-2,4-dihydro-1H-imidazo[1,2-a][1,4]benzodiazepin-1-ones” (J Med Chem, 1977).

Each structure is given as a SMILES string.

In data set [1] the test system is Mus musculus. Description: Antianxiety activity in po dosed CD-1 mouse assessed as inhibition of foot shock-induced aggression after 30 mins relative to control. Format: functional. As to conditions: CD-1, po, 0.5 h.
Data set [2] has as its system Mus musculus. Description: Acute toxicity in po dosed CD-1 mouse assessed as mortality after 24 hrs. Format: organism-based. As to conditions: in vivo.
The test system of data set [3] is Mus musculus. Description: Anticonvulsant activity in po dosed CD-1 mouse assessed as protection against pentylenetetrazole-induced convulsion. Format: functional. The conditions noted are these: CD-1, po.
Data set [4] deals with Mus musculus. Description: Potentiation of chlorprothixene-induced sedative effect in po dosed CD-1 mouse assessed as loss of righting reflex. Type of data set: functional. As to conditions: CD-1, po.
Data set [5] deals with Mus musculus. In words: Induction of muscle relaxation in po dosed CD-1 mouse after 30 mins by rotary drum test. Format: functional. As to conditions: CD-1, po, 0.5 h.
For data set [6], the system named is Mus musculus. Description: Anticonvulsant activity in po dosed CD-1 mouse assessed as protection against strychnine-induced convulsion after 30 mins. Format: functional. The conditions noted are these: CD-1, po, 0.5 h.
For data set [7], the system named is Mus musculus. In words: Anticonvulsant activity in po dosed CD-1 mouse assessed as protection against maximal electroshock-induced convulsion. Format: functional. As to conditions: CD-1, po.
In data set [8] the test system is Mus musculus. Description: Potentiation of hexobarbital-induced sedative effect in po dosed CD-1 mouse assessed as loss of righting reflex after 30 secs. Type of data set: functional. The conditions noted are these: CD-1, po.

`O=C1/C(=C/N2CCSCC2)N=C2CN=C(c3ccccc3)c3cc(Cl)ccc3N12`: the ED50 – broadly, the midpoint of the dose-response relation – is over 20 mg/kg with Mus musculus [1]; over 1000 mg/kg in the data set on Mus musculus [2]; over 50 mg/kg in the data set on Mus musculus [3]; over 50 mg/kg in the data set with Mus musculus [4]; over 50 mg/kg in the data set on Mus musculus [5]; over 50 mg/kg in the data set on Mus musculus [6]. The ED50 in the data set on Mus musculus [7] and in the data set with Mus musculus [8] was over 50 mg/kg throughout.
`CN1CCCC/C1=C1\N=C2CN=C(c3ccccc3)c3cc(Cl)ccc3N2C1=O`: the ED50 is 20 mg/kg in the data set with Mus musculus [1], over 1000 mg/kg in the data set with Mus musculus [2], over 50 mg/kg with Mus musculus [5] and over 50 mg/kg in the data set on Mus musculus [7].
Regarding `CN/C=C1\N=C2CN=C(c3ccccc3)c3cc(Cl)ccc3N2C1=O`, the ED50 in the data set with Mus musculus [1] is 5.3 mg/kg; in the data set on Mus musculus [2], over 1000 mg/kg; in the data set with Mus musculus [4], over 50 mg/kg; in the data set on Mus musculus [6] it was over 50 mg/kg; in the data set with Mus musculus [8] it was over 50 mg/kg.
For the compound `CN1CCN(/C=C2\N=C3CN=C(c4ccccc4)c4cc([N+](=O)[O-])ccc4N3C2=O)CC1`, the ED50 was 2.2 mg/kg with Mus musculus [1]; over 1000 mg/kg in the data set on Mus musculus [2]; 0.92 mg/kg in the data set with Mus musculus [3]; 4.5 mg/kg in the data set on Mus musculus [4]; 8.6 mg/kg with Mus musculus [5]; 6.6 mg/kg in the data set with Mus musculus [6]. The ED50 worked out at 4.2 mg/kg with Mus musculus [7] and 3.6 mg/kg in the data set with Mus musculus [8].
For `O=C1/C(=C/c2ccccc2)N=C2CN=C(c3ccccc3)c3cc(Cl)ccc3N12`, the ED50 in the data set with Mus musculus [2] is over 1000 mg/kg; in the data set on Mus musculus [3] it was over 50 mg/kg; in the data set on Mus musculus [6], over 50 mg/kg; in the data set with Mus musculus [8], over 50 mg/kg.
On to `CCCCN1CCN(/C=C2\N=C3CN=C(c4ccccc4)c4cc(Cl)ccc4N3C2=O)CC1`, for which the median effective dose (ED50) in the data set with Mus musculus [1] is 1.5 mg/kg; in the data set on Mus musculus [2] it was over 1000 mg/kg; with Mus musculus [3], 2 mg/kg; with Mus musculus [4], over 50 mg/kg; in the data set with Mus musculus [5], 9 mg/kg; in the data set on Mus musculus [6], 24 mg/kg. In addition, the 50% effective dose (ED50) worked out at 20.5 mg/kg in the data set on Mus musculus [7] and 44 mg/kg in the data set on Mus musculus [8].
`CNC1=Nc2ccc(Cl)cc2C(c2ccccc2)=[N+]([O-])C1` [CHLORDIAZEPOXIDE]: the ED50 in the data set with Mus musculus [1] came out at 7 mg/kg; in the data set on Mus musculus [3], 1.9 mg/kg; in the data set with Mus musculus [4] it was 4 mg/kg; in the data set on Mus musculus [5], 6.8 mg/kg; in the data set with Mus musculus [6], 5 mg/kg; in the data set with Mus musculus [7] it was 8 mg/kg. Besides, the ED50 in the data set with Mus musculus [8] came to 64 mg/kg.
As to `N/C=C1\N=C2CN=C(c3ccccc3)c3cc(Cl)ccc3N2C1=O`, the ED50 in the data set on Mus musculus [2] was over 1000 mg/kg; in the data set on Mus musculus [3], 7.1 mg/kg; in the data set with Mus musculus [4], 4.3 mg/kg; with Mus musculus [5], over 50 mg/kg; in the data set on Mus musculus [6], over 50 mg/kg; with Mus musculus [7], over 50 mg/kg. Also, the ED50 in the data set on Mus musculus [8] is 1.65 mg/kg.
In the case of `O=C1/C(=C/NCCO)N=C2CN=C(c3ccccc3)c3cc(Cl)ccc3N12`, the ED50 with Mus musculus [1] is 1.5 mg/kg; with Mus musculus [2], over 1000 mg/kg; in the data set with Mus musculus [5], 2.6 mg/kg; in the data set on Mus musculus [6] it was 16 mg/kg; with Mus musculus [7] it was 9.5 mg/kg; in the data set on Mus musculus [8], 3.6 mg/kg.
As for `CCCN/C=C1\N=C2CN=C(c3ccccc3Cl)c3cc(Cl)ccc3N2C1=O`, the ED50 with Mus musculus [1] was 2.4 mg/kg; in the data set with Mus musculus [2], over 1000 mg/kg; in the data set with Mus musculus [3] it was 1 mg/kg; with Mus musculus [4], 5.6 mg/kg; in the data set with Mus musculus [5], 8 mg/kg; in the data set with Mus musculus [6] it was over 25 mg/kg. Further, the ED50 with Mus musculus [7] was over 30 mg/kg; with Mus musculus [8], 0.06 mg/kg.
As to `CCN(CC)CCN/C=C1\N=C2CN=C(c3ccccc3)c3cc(Cl)ccc3N2C1=O`, the ED50 in the data set on Mus musculus [1] was over 20 mg/kg; with Mus musculus [2] it was over 1000 mg/kg; in the data set with Mus musculus [3] it was 16 mg/kg; in the data set with Mus musculus [4], over 50 mg/kg; in the data set on Mus musculus [5], over 50 mg/kg; in the data set on Mus musculus [6], over 50 mg/kg. In addition, the ED50 in the data set on Mus musculus [7] and in the data set on Mus musculus [8] was over 50 mg/kg throughout.
With `CN(C)c1ccc(/C=C2\N=C3CN=C(c4ccccc4)c4cc(Cl)ccc4N3C2=O)cc1`, the ED50 is over 20 mg/kg in the data set on Mus musculus [1]; over 1000 mg/kg in the data set with Mus musculus [2]; over 50 mg/kg in the data set on Mus musculus [3]; over 50 mg/kg in the data set on Mus musculus [5]; over 50 mg/kg in the data set on Mus musculus [6]; over 50 mg/kg in the data set with Mus musculus [8].
As to `C=CCN1CCN(/C=C2\N=C3CN=C(c4ccccc4)c4cc(Cl)ccc4N3C2=O)CC1`, the ED50 in the data set on Mus musculus [1] was 2.3 mg/kg; with Mus musculus [2] it was over 1000 mg/kg; in the data set on Mus musculus [3], 21 mg/kg; in the data set on Mus musculus [4], 18 mg/kg; in the data set on Mus musculus [5], 13 mg/kg; in the data set on Mus musculus [6], over 50 mg/kg. The results for the ED50 in the data set with Mus musculus [7] and with Mus musculus [8] were 13.5 mg/kg and 25 mg/kg, respectively.
Regarding `O=C1/C(=C/N2CCN(CC3CC3)CC2)N=C2CN=C(c3ccccc3)c3cc(Cl)ccc3N12`, the ED50 was 4.65 mg/kg with Mus musculus [1]; over 1000 mg/kg with Mus musculus [2]; 3.5 mg/kg with Mus musculus [3]; 25 mg/kg in the data set with Mus musculus [4]; 6.2 mg/kg with Mus musculus [5]; 30 mg/kg with Mus musculus [6]. Further, the ED50 was 10.5 mg/kg with Mus musculus [7] and 30 mg/kg in the data set on Mus musculus [8].
`CN1CCN(/C=C2\N=C3CN=C(c4ccccc4Cl)c4cc([N+](=O)[O-])ccc4N3C2=O)CC1` [LOPRAZOLAM]: the ED50 with Mus musculus [1] was 0.42 mg/kg; in the data set on Mus musculus [2] it was over 1000 mg/kg; in the data set on Mus musculus [3], 0.028 mg/kg; in the data set on Mus musculus [4], 1.1 mg/kg; in the data set with Mus musculus [5], 2.2 mg/kg; in the data set with Mus musculus [6] it was 0.41 mg/kg. For the same compound, the ED50 with Mus musculus [7] was determined as 0.76 mg/kg; in the data set with Mus musculus [8], 1 mg/kg.
Take `CCN/C=C1\N=C2CN=C(c3ccccc3Cl)c3cc(Cl)ccc3N2C1=O`: the ED50 was 1 mg/kg in the data set on Mus musculus [1]; over 1000 mg/kg in the data set with Mus musculus [2]; 0.39 mg/kg in the data set with Mus musculus [3]; 9.6 mg/kg in the data set on Mus musculus [4]; 11.5 mg/kg in the data set on Mus musculus [5]; 25 mg/kg in the data set with Mus musculus [6]. The figures for the ED50 in the data set on Mus musculus [7] and with Mus musculus [8] were 18 mg/kg and 0.27 mg/kg, respectively.
For the compound `CCN1CCN(/C=C2\N=C3CN=C(c4ccccc4F)c4cc(Cl)ccc4N3C2=O)CC1`, the ED50 in the data set with Mus musculus [1] is 0.48 mg/kg; with Mus musculus [2], over 1000 mg/kg; with Mus musculus [3], 0.155 mg/kg; in the data set on Mus musculus [4] it was 2.35 mg/kg; in the data set on Mus musculus [5], 0.7 mg/kg; in the data set with Mus musculus [6] it was 1.6 mg/kg. Also, the ED50 in the data set with Mus musculus [7] is 1.55 mg/kg; in the data set on Mus musculus [8] it was 2.8 mg/kg.
In the case of `O=CN1CCN(/C=C2\N=C3CN=C(c4ccccc4)c4cc(Cl)ccc4N3C2=O)CC1`, the values for the ED50 with Mus musculus [1], with Mus musculus [2] and with Mus musculus [4] were over 20 mg/kg, over 1000 mg/kg and over 50 mg/kg, respectively.
As to `CN(C)CCN(C)/C=C1\N=C2CN=C(c3ccccc3)c3cc(Cl)ccc3N2C1=O`, the ED50 was over 1000 mg/kg in the data set on Mus musculus [2]; over 50 mg/kg in the data set on Mus musculus [4]; over 50 mg/kg in the data set with Mus musculus [5]; over 50 mg/kg in the data set on Mus musculus [6]; over 50 mg/kg in the data set with Mus musculus [8].
On to `O=C1/C(=C/NC2CCCCC2)N=C2CN=C(c3ccccc3)c3cc(Cl)ccc3N12`, for which the ED50 in the data set on Mus musculus [1] was 1.4 mg/kg; with Mus musculus [2], over 1000 mg/kg; with Mus musculus [3] it was 2.35 mg/kg; in the data set with Mus musculus [4], 6.2 mg/kg; in the data set with Mus musculus [6], 15 mg/kg; with Mus musculus [7], 8.5 mg/kg. Further, the ED50 in the data set with Mus musculus [8] is 8.3 mg/kg.
For `O=C1/C(=C/N2CCCCC2)N=C2CN=C(c3ccccc3)c3cc(Cl)ccc3N12`, the ED50 in the data set with Mus musculus [1] was over 20 mg/kg; with Mus musculus [2], over 1000 mg/kg; in the data set on Mus musculus [3] it was 16 mg/kg; in the data set on Mus musculus [4], over 50 mg/kg; with Mus musculus [6] it was over 50 mg/kg; in the data set with Mus musculus [7], over 50 mg/kg. Also, the ED50 with Mus musculus [8] was 1 mg/kg.
